Measurements taken from ChEMBL document CHEMBL4257494, “Exploring eukaryotic versus prokaryotic ribosomal RNA recognition with aminoglycoside derivatives” (Medchemcomm, 2018).
Calls of active or inactive are those of the source. The calls are words filed in the database; no cut-off is given here.

How the values were obtained:
[1] = Binding affinity to decoding-site of rRNA in Escherichia coli S30 extract assessed as inhibition of protein translation after 60 mins by coupled transcription/translation assay
[2] = Binding affinity to decoding-site of rRNA in rabbit reticulocytes assessed as inhibition of protein translation after 60 mins by coupled transcription/translation assay; assay type: cell-based, Oryctolagus cuniculus
[3] = Ratio of IC50 for inhibition of decoding-site of rRNA-mediated protein translation in rabbit reticulocytes to IC50 for inhibition of decoding-site of rRNA-mediated protein translation in Escherichia coli S30 extract; assay type: cell-based
Escherichia coli = experiment: Antibacterial activity against Escherichia coli R477/100 by double-microdilution method; assay type: functional
Bacillus spizizenii = experiment: Antibacterial activity against Bacillus subtilis ATCC 6633 by double-microdilution method; assay type: functional
HEK293 [4] = experiment: Binding affinity to decoding-site of rRNA in HEK293 cells assessed as read through activity at premature termination codon-containing CFTR G452X nonsense mutant gene (unknown origin) expressed in HEK293 cells after 16 hrs by dual luciferase reporter gene assay; assay type: cell-based; details: Homo sapiens
HEK293 [5] = experiment: Binding affinity to decoding-site of rRNA in HEK293 cells assessed as read through activity at premature termination codon-containing PCDH15 R3X nonsense mutant gene (unknown origin) expressed in HEK293 cells after 16 hrs by dual luciferase reporter gene assay; assay type: cell-based; details: Homo sapiens

C[C@H](N)[C@H]1O[C@H](O[C@@H]2[C@@H](O)[C@H](N)C[C@H](N)[C@H]2O[C@H]2O[C@H](CO)[C@@H](O)[C@H](O)[C@H]2N)[C@H](O)[C@@H]1O.O=S(=O)(O)O
IC50 [1]: 2410 µM | IC50 [2]: 3180 µM | Ratio IC50 [3]: 1.3 | MIC (Escherichia coli): > 192 µg/mL | MIC (Bacillus spizizenii): > 192 µg/mL | Activity (HEK293 [4]): Active | Activity (HEK293 [5]): Active

NC(=O)[C@@H]1O[C@H](O[C@H]2[C@H](O)[C@@H](O)[C@H](N)C[C@@H]2N)[C@H](N)[C@@H](O)[C@@H]1O.O=S(=O)(O)O
IC50 [1]: 1300 µM | IC50 [2]: 700 µM | Ratio IC50 [3]: 0.5 | MIC (Escherichia coli): > 192 µg/mL | MIC (Bacillus spizizenii): > 192 µg/mL

N[C@H]1[C@@H](O[C@H]2[C@H](O)[C@@H](O)[C@H](N)C[C@@H]2N)O[C@H](CO)[C@@H](O)[C@@H]1O.O=S(=O)(O)O [PAROMAMINE SULFATE]
IC50 [1]: 10 µM | IC50 [2]: 800 µM | Ratio IC50 [3]: 80 | MIC (Escherichia coli): > 192 µg/mL | MIC (Bacillus spizizenii): > 192 µg/mL

C[C@H](N)[C@H]1O[C@H](O[C@@H]2[C@@H](O)[C@H](N)C[C@H](N)[C@H]2O[C@H]2O[C@@H](C(=O)O)[C@@H](O)[C@H](O)[C@H]2N)[C@H](O)[C@@H]1O.O=S(=O)(O)O
IC50 [1]: 1300 µM | IC50 [2]: 600 µM | Ratio IC50 [3]: 0.5 | MIC (Escherichia coli): > 192 µg/mL | MIC (Bacillus spizizenii): > 192 µg/mL | Activity (HEK293 [4]): inactive | Activity (HEK293 [5]): inactive

NC[C@H]1O[C@H](O[C@@H]2[C@@H](O)[C@H](N)C[C@H](N)[C@H]2O[C@H]2O[C@H](CO)[C@@H](O)[C@H](O)[C@H]2N)[C@H](O)[C@@H]1O.O=S(=O)(O)O
IC50 [1]: 2930 µM | IC50 [2]: 4320 µM | Ratio IC50 [3]: 1.5 | MIC (Escherichia coli): > 192 µg/mL | MIC (Bacillus spizizenii): > 192 µg/mL | Activity (HEK293 [4]): Active | Activity (HEK293 [5]): Active

C[C@H](N)[C@H]1O[C@H](O[C@@H]2[C@@H](O)[C@H](N)C[C@H](N)[C@H]2O[C@H]2O[C@@H](C(N)=O)[C@@H](O)[C@H](O)[C@H]2N)[C@H](O)[C@@H]1O.O=S(=O)(O)O
IC50 [1]: 2310 µM | IC50 [2]: 520 µM | Ratio IC50 [3]: 0.2 | MIC (Escherichia coli): > 192 µg/mL | MIC (Bacillus spizizenii): > 192 µg/mL | Activity (HEK293 [4]): inactive | Activity (HEK293 [5]): inactive

NC[C@H]1O[C@H](O[C@@H]2[C@@H](O)[C@H](N)C[C@H](N)[C@H]2O[C@H]2O[C@@H](C(N)=O)[C@@H](O)[C@H](O)[C@H]2N)[C@H](O)[C@@H]1O.O=S(=O)(O)O
IC50 [1]: 2 µM | IC50 [2]: 20 µM | Ratio IC50 [3]: 10 | MIC (Bacillus spizizenii): 83 µg/mL

NC[C@H]1O[C@H](O[C@@H]2[C@@H](O)[C@H](N)C[C@H](N)[C@H]2O[C@H]2O[C@@H](C(=O)O)[C@@H](O)[C@H](O)[C@H]2N)[C@H](O)[C@@H]1O.O=S(=O)(O)O
IC50 [1]: 420 µM | IC50 [2]: 500 µM | Ratio IC50 [3]: 1.2 | MIC (Escherichia coli): > 192 µg/mL | MIC (Bacillus spizizenii): > 192 µg/mL

N[C@H]1[C@@H](O[C@H]2[C@H](O)[C@@H](O)[C@H](N)C[C@@H]2N)O[C@@H](C(=O)O)[C@@H](O)[C@@H]1O.O=S(=O)(O)O
IC50 [1]: 0.5 µM | IC50 [2]: 30 µM | Ratio IC50 [3]: 60 | MIC (Bacillus spizizenii): 100 µg/mL
